Assay results reported in patent US11767353B2, “Trail compositions with reduced immunogenicity” (Theraly Fibrosis, Inc., priority 2020, dated 2023).
“Also recorded” adds a separate entry of the source.

Legend:
[1] = tested on: Human Colon Carcinoma Fibroblasts HC-6231; test: Caspase 3/7 activity in colon cancer associated fibroblasts; assay type: cell-based; settings: TLY012 0-1000 ng/ml for 3h, FIG. 12A
Excerpt: Human Colon Carcinoma Fibroblasts HC-6231 were obtained from Cell Biologics (Catalog Number HC-6231) and maintained in fibroblast media (Cell Biologics, Catalog Number M2267).

[2] = tested on: activated human primary pancreatic stellate cells (PSCs); test: Caspase 3/7 activity and immunoblot in activated pancreatic stellate cells; assay type: cell-based; settings: TLY012 30 or 100 ng/ml for 3h
Procedure: Human primary pancreatic stellate cells (PSCs) and stellate cell medium (SteCM) were obtained from ScienCell Research Laboratories (Carlsbad, Calif.). PSCs were cultured on Poly-L-Lysine coated plates in SteCM medium supplemented with 2% of FBS, 1% of stellate cell growth supplement, and 1% of penicillin/streptomycin solution according to the manufacturer's instructions. Pancreatic cancer associated fibroblasts (CAF08) and maintenance media (PC00B5) were obtained from Vitro Biopharma. 100 of PSCs were culture-activated for 7 to have the confluent population of activated cells or 2×10^4 cells of CAF08 were cultured on a 96 well microplate (Corning, CLS3917) for 24h and were incubated with TLY012 (at 30 ng/ml or 100 ng/ml) for 3h. After incubation, 50 μL of Caspase 3/7 substrate/lysis buffer was added to each well and incubated for 30 min after 30 min of equilibration period to room temperature. The luminescence of each sample was measured on a plate reader (Bio-Tek Instruments Inc) with parameters of 1 min lag time and 0.5 sec/well-read time (n=3).
(§2) For immunoblot, 100 of PSCs were culture activated on a 6 well plate for 7 days or 2×10^5 of CAF08 cells were plated on 6-well plates followed by control treatment or treatment with TLY012 (at 30 ng/ml or 100 ng/ml) for 3h. The lysates from the cells were tested for the presence of Cl.PARP-1 and SMA using Western bot.

[3] = tested on: primary human hepatocytes; test: Off-target toxicity in primary human hepatocytes; assay type: cell-based; settings: concentrations up to 100 nM
[4] = tested on: Pancreatic cancer associated fibroblasts (CAF08)
Procedure: Pancreatic cancer associated fibroblasts (CAF08) and maintenance media (PC00B5) were obtained from Vitro Biopharma. 100 of PSCs were culture-activated for 7 to have the confluent population of activated cells or 2×10^4 cells of CAF08 were cultured on a 96 well microplate (Corning, CLS3917) for 24h and were incubated with TLY012 (at 30 ng/ml or 100 ng/ml) for 3h. After incubation, 50 μL of Caspase 3/7 substrate/lysis buffer was added to each well and incubated for 30 min after 30 min of equilibration period to room temperature. The luminescence of each sample was measured on a plate reader (Bio-Tek Instruments Inc) with parameters of 1 min lag time and 0.5 sec/well-read time (n=3).
as §2
Pancreatic cancer associated fibroblasts (CAF08) and maintenance media (PC00B5) were obtained from Vitro Biopharma and maintained in Pancreatic Stellate CAF maintenance media (Vitro Biopharma, Cat. No. PC00B5).
After incubation, 50 uL of Caspase 3/7 substrate/lysis buffer from Caspase3/7 Glo assay kit (Promega, Madison USA) was added to each well and incubated for 30 min after 30 min of equilibration period to room temperature. The luminescence of each sample was measured on a plate reader (Bio-Tek Instruments Inc) with parameters of 1 min lag time and 0.5 sec/well-read time (n=3).
For Western blot, 2×10^5 cells were plated on 6-well plates and were incubated with the same cytotoxic agents as indicated followed by Western blot detection of Cl.PARP-1, PD-L1, DR5, DR4, α-SMA, and β-actin.

[5] = Formulation stability and freeze-thaw stability; assay type: physicochemical
Excerpt: The stability may be evaluated by measuring the ratio of soluble material to the insoluble material that can be separated by centrifugation. The intact structure of stored material can also be confirmed by IEX-HPLC (SP-NPR) and RP-HPLC (C4).

[6] = tested on: activated primary human hepatic stellate cells (HSCs); test: Cell cytotoxicity assay on activated hepatic stellate cells (myofibroblasts); assay type: cell-based; settings: FIG. 3
Procedure: (§1) In addition to the standard physico-chemical characterization, the leads were tested for the target potency and off-target toxicity. Initially, selective apoptotic activities of various TLY012 leads were tested in normal (off-target) and myofibroblasts (target cells) by utilizing quiescent and activated primary human hepatic stellate cells (HSCs) respectively. Briefly, quiescent and culture-activated HSCs were incubated with TLY012 leads and cell viability was determined by cell cytotoxicity assays.

[7] = tested on: quiescent primary human hepatic stellate cells (HSCs); test: Cell cytotoxicity assay on quiescent hepatic stellate cells (off-target); assay type: cell-based; settings: high concentrations (100 nM)
Procedure: as §1

[8] = tested on: ASPC-1/PSC xenografts; test: PSC/ASPC-1 subcutaneous xenograft in athymic nude mice; assay type: in vivo
Procedure: Six-week-old athymic nude mice were anesthetized for all procedures 5×10^6ASPC-1 cells (human pancreas adenocarcinoma ascites metastasis cell line derived from nude mouse xenografts initiated with cells from the ascites of a patient with cancer of the pancreas) were mixed with 5×10^4 PSC cells and injected in a subcutaneous in athymic nude mice. Before injection, the cells were trypsinized, counted, washed twice in 1×PBS and resuspended in 100 μl of Matrigel® matrix (Corning), and injected between the scapulae. Two weeks after the tumor transplantation, mice were injected with TLY012 via intravenous (IV) injection (10 mg/kg, every other day) for 2 weeks, while control mice received PBS. Western blot was performed on tissue extracts with antibodies against GAPDH (Santa Cruz 5 Biotechnology, sc-1694), α-SMA (Sigma, A2547), GRP78 (Santa Cruz Biotechnology, sc-13968), DR4 (Abcam, Cambridge, Mass., #13890), DR5 (Abcam, #47179), PDGF-Rb (Santa Cruz Biotechnology, sc-432), and Cl.PARP-1 (Cell Signaling Technology, #5625).
Comparative quantitative RT-PCR (qPCR) was performed in the tumor sample for fibrogenic markers. qPCR was performed in triplicate for each sample using fast SYBR Green Master Mix (Thermo Fisher Scientific) and StepOnePlus Real-Time PCR System (Thermo Fisher Scientific). The expression levels of target genes were normalized to the expression of 18s and calculated based on the comparative cycle threshold Ct method (2^−ΔΔCt).
Collagen deposition was detected with Masson's Trichrome staining and microscopy.
Mouse xenografts were generated as in Example 8. Two weeks after the tumor transplantation, mice were injected with TLY012 via intravenous (IV) injection (10 mg/kg, every other day) and/or sorafenib (20 mg/kg, oral everyday) for 2 weeks. The mice were euthanized when the tumor volume reached 1500 mm^3 and images of the excised xenografts recorded and tumor weight measured.

## TLY012: PEGylated (5 kDa PEG-aldehyde) recombinant human TRAIL (114-281) fused to modified isoleucine zipper (miLZ) at N-terminus; SEQ ID NO:30 trimer
[1]
  apoptosis by Caspase3/7 activity assay: induced apoptosis
[2]
  Cl.PARP-1, immunoblot: detected
[2]; vs control treatment
  caspase 3/7 activity (RLU): activated caspase 3/7
[3]
  off-target toxicity: did not show any off-target toxicity
[4]; TLY012 30 or 100 ng/ml for 3h
  Cl.PARP-1, immunoblot: detected
[4]; TLY012 30 or 100 ng/ml for 3h, vs control treatment
  caspase 3/7 activity (RLU): activated caspase 3/7
[4]; pancreatic CAF
  protein levels of α-SMA, Western blotting: significantly decreased
[5]; formulated at 21-22 mg/mi, biological activity and HPLC appearance
  resistance to multiple freeze-thaw cycles: resistant to multiple freeze-thaw cycles
[5]; in the presence of physiological concentrations of salt, no detectable precipitation, same IEX-HPLC pattern
  concentration at which formulation was stable: up to 25 mg/ml
[6]
  IC50: 0.142 nM
[7]
  effect / off-target toxicity on quiescent HSCs: no effect
[7]; listed as TLY012 leads
  effect / off-target toxicity on quiescent HSCs: no off-target toxicity
[8]; TLY012 IV 10 mg/kg every other day and/or sorafenib 20 mg/kg oral everyday for 2 weeks
  tumor weight, Mean: 1109.5 mg
[8]; TLY012 IV 10 mg/kg every other day, 2 weeks, 10 mg/kg
  collagen deposition, Masson's Trichrome staining: reduced the levels of collagen; also recorded: markedly reduced collagen deposition
[8]; TLY012 IV 10 mg/kg every other day, 2 weeks, vs PBS controls, 10 mg/kg
  PDGF-Rb, DR5, DR4 (and GRP78) protein levels in tumor, Western blot: markedly reduced; also recorded: significantly decreased
[8]; TLY012 IV 10 mg/kg every other day, 2 weeks, vs control, 10 mg/kg
  mRNA levels of fibrogenic markers Acta2, Pdgf-r, Tgf-b in tumor (qPCR): decreased; also recorded: significantly reduced
